Among the data in US10287267B2, “Isoquinolin-3-yl carboxamides and preparation and use thereof” (Samumed, LLC, priority 2016, dated 2019) are EC50 and inhibition values, retold here.

The subject of assay [1] is α-smooth muscle actin (αSMA) positive LL29 cells. In words: Inhibition of fibrotic process: αSMA in TGF-β1 treated primary human fibroblasts from IPF patients.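 As to all read-outs here: controls were TGF-β1 stimulated wells with DMSO vehicle (positive) and cells given DMSO alone (negative), cultured in F12 medium with 1% fetal bovine serum.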 It is filed as cell-based. Conditions: Homo sapiens, Fibroblast; for EC50: 96 h, Table 8, LL29 fibroblasts from IPF patients, TGF-β1 20 ng/mL, 4 days, dose-response 10 μM to 0.94 nM; for inhibition at 10 µM: read-out: percent value in parentheses beside EC50 >10 μM.

A further assay concerns IL-6. The assay can be described thus: IL-6 inhibition in LPS-stimulated human peripheral blood mononuclear cells (HTRF).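 As to all read-outs here: IL-6 detected by HTRF with an XL665- and Cryptate-labelled anti-IL-6 antibody pair, samples run in duplicate, EC50 obtained from a four-parameter Levenberg-Marquardt curve fit.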 It is filed as cell-based. The settings on record: Homo sapiens, PBMC; for EC50: Table 9, huPBMCs, LPS 50 ng/mL, 22 hours, dose-response starting from 10 μM; for inhibition at 10 µM: read-out: percent value in parentheses beside EC50 >10 μM. (TR-FRET usually uses a lanthanide donor and a delayed reading to cut background.)

Assay [2] has as its system Tau phosphorylation at Ser396 (pSer396). The assay can be described thus: Tau phosphorylation assay (pSer396 ELISA / western blot) in SH-SY5Y cells.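 Also: EC50 for reduction of Tau pSer396 in lysed cells, measured by colorimetric ELISA or chemiluminescent western blot, both using the same pSer396 antibody.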 It is filed as cell-based, human. The settings on record: Homo sapiens; SH-SY5Y cells, overnight (16-18 h) exposure; read-out: pSer396 Tau EC50.
Another assay concerns the target recombinant GSK3β kinase (Homo sapiens (Human), UniProt P49841). The assay can be described thus: GSK3β kinase assay (Ser/Thr 09 peptide Z-lyte FRET).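 Also: kinase activity read as coumarin to fluorescein emission ratio, 11-point threefold dilutions from 10 µM to 0.0003 µM in duplicate, unphosphorylated and phosphorylated peptide as 0% and 100% controls.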 The class given is biochemical. Conditions: 46 μM ATP, 1 h room temperature.
Assay [3] relates to SW480 colon carcinoma cells. The assay can be described thus: Cell viability assay (CellTiter-Glo). The class given is cell-based, human. The settings on record: Homo sapiens, 96 h; SW480 cells, CellTiter-Glo, four days incubation. A general note: Cellular ATP, detected with luciferase, serves as a proxy for viable cell number.
Assay [4] concerns the target recombinant DYRK1A kinase (Homo sapiens (Human), UniProt Q13627). In words: DYRK1A kinase assay (Ser/Thr 18 peptide Z-lyte FRET).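 Also: Read-out is the coumarin to fluorescein emission ratio, referenced to unphosphorylated (0%) and phosphorylated (100%) Ser/Thr 18 peptide controls, values from dose-response curves by non-linear regression.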 The class given is biochemical. The settings on record: 30 μM ATP, 1 h room temperature.
Assay [5] concerns Wnt pathway (Sp5-Luc reporter, TCF/LEF binding sites) in SW480 colon carcinoma cells. The assay can be described thus: Screening assay for Wnt activity: Sp5-Luc reporter gene assay.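 Also: firefly luciferase luminescence read in stably transduced SW480 cells carrying the Sp5 promoter reporter with eight TCF/LEF sites, compounds given in 0.1% DMSO final.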 The class given is cell-based, human. Conditions: Homo sapiens; Sp5-Luc reporter, SW480 cells, 36 to 48 hours. On the technique in general: In a reporter assay the amount or activity of a reporter protein is the signal.
Protocol: The screening assay for Wnt activity is described as follows.
Following incubation, 15 μl of BriteLite Plus luminescence reagent (Perkin Elmer) was added to each well of the 384-well assay plates. The plates were placed on an orbital shaker for 2 min and then luminescence was quantified using the Envision (Perkin Elmer) plate reader.

Molecules are shown by their SMILES.

Chain of recombinant GSK3β kinase (P49841 whole entry): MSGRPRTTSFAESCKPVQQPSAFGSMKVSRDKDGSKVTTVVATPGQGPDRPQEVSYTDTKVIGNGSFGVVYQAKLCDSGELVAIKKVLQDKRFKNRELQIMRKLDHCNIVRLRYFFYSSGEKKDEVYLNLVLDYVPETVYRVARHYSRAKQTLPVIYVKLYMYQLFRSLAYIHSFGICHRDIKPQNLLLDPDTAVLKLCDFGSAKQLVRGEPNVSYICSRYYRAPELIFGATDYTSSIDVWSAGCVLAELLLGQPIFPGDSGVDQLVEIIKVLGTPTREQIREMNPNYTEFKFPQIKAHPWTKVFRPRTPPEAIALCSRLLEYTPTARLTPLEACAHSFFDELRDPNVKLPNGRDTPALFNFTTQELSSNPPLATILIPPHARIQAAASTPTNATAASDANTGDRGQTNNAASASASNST
Protocol for IL-6: After 22 hour incubation, a mixture of anti-IL6 XL665 and anti-IL-6 Cryptate diluted in reconstitution buffer (Catalog #62IL6PEC, Cisbio Inc., Bedford, Mass.) was added to each well. […] All samples were processed in duplicate. […] EC50 was determined using software generated by Dotmatics Limited (Windhill Bishops Stortford Herts, UK) using the Levenberg-Marquardt 4 parameter fitting procedure with finite different gradients.

Turning to `Cn1cc(-c2ccc3cnc(NC(=O)[C@H]4CC[C@H](CN5CC(F)C5)CC4)cc3c2)cn1` [Compound 10, trans-4-((3-Fluoroazetidin-1-yl)methyl)-N-(6-(1-methyl-1H-pyrazol-4-yl)isoquinolin-3-yl)cyclohexane-1-carboxamide], the EC50 (commonly the concentration giving half of the maximal effect) in assay [1] was above 10000 nM; in the assay with IL-6, 399 nM; in assay [2], 227 nM; at recombinant GSK3β kinase, 51 nM; in assay [3] it was 324 nM; in assay [4] it was 1.3 nM. The compound also yielded an EC50 in assay [5] of 277 nM. Moreover, the inhibition at 10 µM in assay [1] was 39.6%.

For `CN1CCN(C[C@H]2CC[C@H](C(=O)Nc3cc4cc(-c5cnn(C)c5)ccc4cn3)CC2)CC1` [Compound 14, trans-N-(6-(1-Methyl-1H-pyrazol-4-yl)isoquinolin-3-yl)-4-((4-methylpiperazin-1-yl)methyl)cyclohexane-1-carboxamide], the EC50 in assay [1] came out at 35 nM; in the assay with IL-6 it was 643 nM; in assay [2], 408 nM; on recombinant GSK3β kinase, 59 nM; in assay [3], 898 nM; in assay [4] it was 1.5 nM. Further, a half-maximal effect in assay [5] (EC50) was put at 354 nM.

On to `Cn1cc(-c2ccc3cnc(NC(=O)C4CNC4)cc3c2)cn1` [Compound 16, N-(6-(1-Methyl-1H-pyrazol-4-yl)isoquinolin-3-yl)azetidine-3-carboxamide], for which the EC50 was 1270 nM in assay [1]; 2170 nM in the assay with IL-6; above 10000 nM in assay [2]; 24 nM on recombinant GSK3β kinase; 7840 nM in assay [3]; 3.9 nM in assay [4]. In assay [5], this compound gave a concentration giving a half-maximal response (EC50) above 10000 nM.

As to `Cn1cc(-c2ccc3cnc(NC(=O)CN4CC[C@H](F)C4)cc3c2)cn1` [Compound 69, (S)-2-(3-Fluoropyrrolidin-1-yl)-N-(6-(1-methyl-1H-pyrazol-4-yl)isoquinolin-3-yl)acetamide], the EC50 in assay [1] amounted to 394 nM; in the assay with IL-6, 2160 nM; in assay [2] it was 383 nM; on recombinant GSK3β kinase it was 13 nM; in assay [3], 3930 nM; in assay [4] it was 6.2 nM. In addition, the EC50 in assay [5] turned out to be 3700 nM.

Turning to `Cn1cc(-c2ccc3cnc(NC(=O)[C@@H]4CCCO4)cc3c2)cn1` [Compound 71, (S)—N-(6-(1-Methyl-1H-pyrazol-4-yl)isoquinolin-3-yl)tetrahydrofuran-2-carboxamide], the EC50 in assay [1] is above 10000 nM; in the assay with IL-6, 6730 nM; in assay [2], 1510 nM; on recombinant GSK3β kinase it was 62 nM; in assay [3], 8100 nM; in assay [4] it was 13.6 nM. In assay [5], this compound came in with an EC50 of 3900 nM. The inhibition at 10 µM in assay [1] came out at 33.4%.

`CC(C)N1CCC(C(=O)Nc2cc3cc(-c4cnn(C)c4)ccc3cn2)CC1` [Compound 75, 1-Isopropyl-N-(6-(1-methyl-1H-pyrazol-4-yl)isoquinolin-3-yl)piperidine-4-carboxamide]: the EC50 in assay [1] is 148 nM; with IL-6 it was 806 nM; in assay [2] it was 227 nM; on recombinant GSK3β kinase it was 64 nM; in assay [3] it was 1320 nM; in assay [4], 2.6 nM. In assay [5], this compound yielded an EC50 of 520 nM.

For the compound `Cn1cc(-c2ccc3cnc(NC(=O)C4CCN(C5COC5)CC4)cc3c2)cn1` [Compound 86, N-(6-(1-methyl-1H-pyrazol-4-yl)isoquinolin-3-yl)-1-(oxetan-3-yl)piperidine-4-carboxamide], the EC50 in assay [1] was above 10000 nM; in the assay with IL-6 it was 1770 nM; in assay [2], 682 nM; at recombinant GSK3β kinase, 48 nM; in assay [3] it was above 10000 nM; in assay [4] it was 2.5 nM. The EC50 in assay [5] came to 4000 nM. Moreover, in assay [1], the inhibition at 10 µM is 14.6%.

On to `Cn1cc(-c2ccc3cnc(NC(=O)C4CCN(CC5(C)COC5)CC4)cc3c2)cn1` [Compound 87, N-(6-(1-Methyl-1H-pyrazol-4-yl)isoquinolin-3-yl)-1-((3-methyloxetan-3-yl)methyl)piperidine-4-carboxamide], for which the EC50 stood at 81 nM in assay [1]; 2940 nM in the assay on IL-6; 414 nM in assay [2]; 32 nM on recombinant GSK3β kinase; 3160 nM in assay [3]; 3.3 nM in assay [4]. The response in assay [5] was half-maximal at 1000 nM (EC50).

In the case of `COCCN1CCC(C(=O)Nc2cc3cc(-c4cnn(C)c4)ccc3cn2)CC1` [Compound 89, 1-(2-Methoxyethyl)-N-(6-(1-methyl-1H-pyrazol-4-yl)isoquinolin-3-yl) piperidine-4-carboxamide], the EC50 in assay [1] came to 137 nM; in the assay with IL-6 it was 1140 nM; in assay [2], 364 nM; at recombinant GSK3β kinase it was 64 nM; in assay [3], 738 nM; in assay [4] it was 2.7 nM. The compound further registered an EC50 in assay [5] of 765 nM.

For `CC(C)OCCN1CCC(C(=O)Nc2cc3cc(-c4cnn(C)c4)ccc3cn2)CC1` [Compound 90, 1-(2-Isopropoxyethyl)-N-(6-(1-methyl-1H-pyrazol-4-yl)isoquinolin-3-yl) piperidine-4-carboxamide], the EC50 in assay [1] is 96 nM; in the assay with IL-6, 1080 nM; in assay [2] it was 302 nM; on recombinant GSK3β kinase it was 42 nM; in assay [3] it was 1170 nM; in assay [4], 3 nM. Also, in assay [5], a half-maximal effect (EC50) was put at 1100 nM.

`Cn1cc(-c2ccc3cnc(NC(=O)C4(F)CCNCC4)cc3c2)cn1` [Compound 91, 4-Fluoro-N-(6-(1-methyl-1H-pyrazol-4-yl)isoquinolin-3-yl)piperidine-4-carboxamide]: the EC50 in assay [1] was above 10000 nM; with IL-6 it was above 10000 nM; in assay [2], 4700 nM; at recombinant GSK3β kinase, 838 nM; in assay [3], 9590 nM; in assay [4], 10.5 nM. This compound returned an EC50 in assay [5] above 10000 nM. Moreover, the inhibition at 10 µM was determined as 17.3% in assay [1] and 40% with IL-6.

Regarding `CN1CCC(F)(C(=O)Nc2cc3cc(-c4cnn(C)c4)ccc3cn2)CC1` [Compound 92, 4-Fluoro-1-methyl-N-(6-(1-methyl-1H-pyrazol-4-yl)isoquinolin-3-yl) piperidine-4-carboxamide], the EC50 in assay [1] is above 10000 nM; in the assay on IL-6, above 10000 nM; in assay [2], 3900 nM; at recombinant GSK3β kinase it was 361 nM; in assay [3], 983 nM; in assay [4], 6.5 nM. The concentration giving a half-maximal response (EC50) in assay [5] came to 1600 nM. Further, the figures for the inhibition at 10 µM (in assay [1]; in the assay with IL-6) were 16.7% and 33%, respectively.

As to `CC(C)CN1CCC(F)(C(=O)Nc2cc3cc(-c4cnn(C)c4)ccc3cn2)CC1` [Compound 96, 4-Fluoro-1-isobutyl-N-(6-(1-methyl-1H-pyrazol-4-yl)isoquinolin-3-yl) piperidine-4-carboxamide], the EC50 was 677 nM in assay [1]; above 10000 nM in the assay with IL-6; 2000 nM in assay [2]; 350 nM at recombinant GSK3β kinase; above 10000 nM in assay [3]; 7.1 nM in assay [4]. In assay [5], the EC50 was above 10000 nM. Also, in the assay with IL-6, the inhibition at 10 µM stood at 5.8%.

With `Cn1cc(-c2ccc3cnc(NC(=O)[C@H]4CCCNC4)cc3c2)cn1` [Compound 110, (S)—N-(6-(1-Methyl-1H-pyrazol-4-yl)isoquinolin-3-yl)piperidine-3-carboxamide], the EC50 was determined as 286 nM in assay [1]; 484 nM in the assay on IL-6; 636 nM in assay [2]; 34 nM on recombinant GSK3β kinase; 1050 nM in assay [3]; 4.7 nM in assay [4]. This compound yielded an EC50 in assay [5] of 1100 nM.

For the compound `CC(C)CN1CCC[C@H](C(=O)Nc2cc3cc(-c4cnn(C)c4)ccc3cn2)C1` [Compound 112, (S)-1-Isobutyl-N-(6-(1-methyl-1H-pyrazol-4-yl)isoquinolin-3-yl)piperidine-3-carboxamide], the EC50 in assay [1] stood at 546 nM; in the assay on IL-6, 2990 nM; in assay [2] it was 1750 nM; on recombinant GSK3β kinase it was 292 nM; in assay [3], 6420 nM; in assay [4], 20.6 nM. The EC50 in assay [5] came to 3200 nM.

In the case of `CC(C)CN1CCC[C@@H](C(=O)Nc2cc3cc(-c4cnn(C)c4)ccc3cn2)C1` [Compound 113, (R)-1-Isobutyl-N-(6-(1-methyl-1H-pyrazol-4-yl)isoquinolin-3-yl)piperidine-3-carboxamide], the EC50 in assay [1] is 2110 nM; in the assay with IL-6 it was 1920 nM; in assay [2], 3800 nM; on recombinant GSK3β kinase, 586 nM; in assay [3] it was above 10000 nM; in assay [4], 24.1 nM. Moreover, in assay [5], the EC50 is above 10000 nM.

For `Cn1cc(-c2ccc3cnc(NC(=O)C4CCOCC4)cc3c2)cn1` [Compound 114, N-(6-(1-Methyl-1H-pyrazol-4-yl)isoquinolin-3-yl)tetrahydro-2H-pyran-4-carboxamide], the EC50 in assay [1] came out at 735 nM; with IL-6, 1140 nM; in assay [2] it was 286 nM; on recombinant GSK3β kinase it was 32 nM; in assay [3], 3890 nM; in assay [4], 1.9 nM. A half-maximal response in assay [5] (EC50) required 835 nM.
